The values that follow are results of earlier work, collected in US11813301B2, “Topical composition with active compounds from Cannabis sativa and Calendula officinalis for reduction of skin lesions” (UAB Satimed, priority 2016, dated 2023).

This data set deals with keratinocyte proliferation. Conditions: cannabinoid receptor-independent manner.
Regarding `CCCCCc1cc(O)c2c(c1)OC(C)(C)c1ccc(C)cc1-2` [CBN, Cannabinol], the “inhibition of keratinocyte proliferation” value was “low micromolar range”.
Consider `CCCCCc1cc(O)c2c(c1)OC(C)(C)[C@@H]1CCC(C)=C[C@@H]21` [Preparation D9-THC, Δ9-tetrahydrocannabinol], for which the “inhibition of keratinocyte proliferation” value was “low micromolar range”.
With `C=C(C)[C@@H]1CCC(C)=C[C@H]1c1c(O)cc(CCCCC)cc1O` [CBD, Cannabidiol], the “inhibition of keratinocyte proliferation” value is given as “low micromolar range”.
